According to patent US10245264B2, “Substituted imidazo[1,2-a]pyrazines as soluble guanylate cyclase activators” (Merck Sharp & Dohme Corp., priority 2015, dated 2019):

Target: T1, sGC α1/β1 heterodimer stably expressed in CHO-K1 cells (CHO-K1/sGC) (Homo sapiens, UniProt Q02108+Q02153)
T1 construct: expressed in transfected cells
T1 sequence (Q02108 1-690): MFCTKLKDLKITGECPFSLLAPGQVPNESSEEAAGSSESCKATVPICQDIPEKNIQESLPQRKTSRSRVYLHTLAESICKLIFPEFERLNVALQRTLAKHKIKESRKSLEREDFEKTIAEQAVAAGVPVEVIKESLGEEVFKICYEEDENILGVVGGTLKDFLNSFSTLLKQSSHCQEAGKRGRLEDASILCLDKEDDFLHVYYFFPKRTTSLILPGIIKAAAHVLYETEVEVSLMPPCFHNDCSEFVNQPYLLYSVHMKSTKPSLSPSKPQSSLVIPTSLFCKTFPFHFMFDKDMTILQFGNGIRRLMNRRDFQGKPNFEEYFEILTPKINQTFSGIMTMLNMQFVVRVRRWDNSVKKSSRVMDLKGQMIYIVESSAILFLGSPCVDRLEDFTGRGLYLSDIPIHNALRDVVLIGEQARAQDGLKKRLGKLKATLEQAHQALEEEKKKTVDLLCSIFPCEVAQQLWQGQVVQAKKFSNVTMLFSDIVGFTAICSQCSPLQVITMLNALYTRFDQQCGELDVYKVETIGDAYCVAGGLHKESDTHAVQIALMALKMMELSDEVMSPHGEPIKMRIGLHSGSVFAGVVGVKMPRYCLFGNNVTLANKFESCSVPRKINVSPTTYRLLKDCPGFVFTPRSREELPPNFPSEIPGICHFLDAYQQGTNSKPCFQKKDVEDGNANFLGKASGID
T1 sequence (Q02153 1-619): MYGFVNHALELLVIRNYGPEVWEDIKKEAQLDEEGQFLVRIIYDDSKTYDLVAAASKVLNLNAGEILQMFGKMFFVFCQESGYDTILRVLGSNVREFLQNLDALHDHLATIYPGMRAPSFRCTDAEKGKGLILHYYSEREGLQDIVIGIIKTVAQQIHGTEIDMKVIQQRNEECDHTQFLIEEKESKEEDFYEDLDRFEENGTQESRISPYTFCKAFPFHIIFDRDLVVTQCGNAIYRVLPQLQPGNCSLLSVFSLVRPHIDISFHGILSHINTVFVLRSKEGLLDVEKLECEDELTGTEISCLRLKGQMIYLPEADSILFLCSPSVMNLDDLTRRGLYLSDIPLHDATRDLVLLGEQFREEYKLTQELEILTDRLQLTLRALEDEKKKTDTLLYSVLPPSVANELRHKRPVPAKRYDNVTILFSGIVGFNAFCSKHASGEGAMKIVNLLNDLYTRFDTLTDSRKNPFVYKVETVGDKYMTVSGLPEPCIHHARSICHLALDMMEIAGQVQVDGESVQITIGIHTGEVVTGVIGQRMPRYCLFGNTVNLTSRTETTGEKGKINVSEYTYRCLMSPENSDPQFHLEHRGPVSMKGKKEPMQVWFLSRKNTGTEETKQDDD
Assay: Cell-based sGC functional assay (CASA assay), cGMP generation by HTRF
Conditions: for Emax: CHO-K1, maximum cGMP production of Compound A set to 100% activation, read-out: % Act. (percent activation relative to Compound A); for EC50: CHO-K1/sGC cells, 1 hr at 37° C., 4P fit, presence or absence of DETA-NO not given, read-out: IP (nM) (inflection point)
Source text: Biological Assay 1: Cell-Based sGC Functional Assay (CASA Assay) Rationale
sGC is a heme-containing enzyme that converts GTP to secondary messenger cGMP. Increases in cGMP levels affect several physiological processes including vasorelaxation through multiple downstream pathways. […] Heme-dependent activators (HDAs) preferentially activate sGC containing a ferrous heme group. To determine the effect of sGC activators on enzyme activity, the CASA assay was developed to monitor the generation of cGMP in a cell line that stably expresses the heterodimeric sGC protein.
A CHO-K1 cell line stably expressing the sGC α1/β1 heterodimer was generated using a standard transfection protocol. CHO-K1 cells were transfected with plasmids pIREShyghsGCα1 and pIRESneo-hsGCβ1 simultaneously using FUGENE reagent. Clones that stably express both subunits were selected with hygromycin and neomycin for ˜2 weeks. Clone #7 was chosen for the assay and was designated CHO-K1/sGC. CHO-K1/sGC cells were maintained in F-K12 medium containing 10% heat-inactivated Fetal Bovine Serum (FBS), 100 μg/mL penicillin/streptomycin, 0.5 mg/mL hygromycin and 0.25 mg/mL G418. The cells were then cryopreserved in LN2. On the day of the assay, cells were thawed and resuspended in EBSS Assay Buffer (Sigma, E3024) supplemented with 5 mM MgCl2, 10 mM HEPES (4-(2-hydroxyethyl)piperazine-1-ethanesulfonic acid) and 0.05% BSA (bovine serum albumin) (EAB) and cell density was then adjusted to 4×10^5/mL with EAB. IBMX (3-isobutyl-1-methylxanthin, 0.5 mM) was added to inhibit degradation of cGMP. Compounds were diluted from DMSO stock solutions and added to the assay at a final DMSO concentration of 2.5%. Cells were incubated with compounds in the presence and absence of 1 μM of Diethylenetriamine/nitric oxide adduct (DETA-NO; Sigma, 17018) for 1 hr at 37° C. At the end of the incubation period, the reaction was terminated and the cells were lysed with the detection reagents from Cisbio Kits. The level of intracellular cGMP was determined using an HTRF-based assay kit (CisBio, 62GM2PEC), which detects the displacement of a fluorescence labeled cGMP from its specific antibody. The cGMP produced by test compounds was directly compared to the maximum cGMP production (this value was set to equal 100% activation.) of the published sGC-HDA Compound A:
[drawing 101] (Example 1 in WO 2010/065275, published Jun. 10, 2010). The test compounds' activities were then expressed as a percentage of Compound A, the standard in every experiment. This percent activation was calculated either in the presence or absence of DETA-NO which was then plotted. IP and maximum fold induction was derived using ADA analysis software for 4P fit.
The compounds in the Examples of the instant invention had inflection points (IP) less than or equal to 10 μM and many had IPs less than or equal to about 1 μM.

Emax [%]	EC50 [nM]	% Act. (percent activation relative to Compound A) (maximum cGMP production of Compound A set to 100% activation) [%]	Structure (SMILES)
97	416	–	CC1(c2ccccc2)C(=O)Nc2nc(-c3cn4ccnc4c(OCC(F)(F)C(F)(F)F)n3)nc(N)c21 (stereo not drawn) [Example 3B, 4-amino-5-methyl-2-[8-(2,2,3,3,3-pentafluoropropoxy)imidazo[1,2-a]pyrazin-6-yl]-5-phenyl-5,7-dihydro-6H-pyrrolo [2,3-d]pyrimidin-6-one]
110	13	–	CC1(c2ccc(F)cc2)C(=O)Nc2nc(-c3cn4ccnc4c(OCC4CCCC4)n3)nc(N)c21 (stereo not drawn) [Example 45A, 4-amino-2-[8-(cyclopentyl-methoxy)imidazo [1,2-a]pyrazin-6-yl]-5-(4-fluoro-phenyl)-5-methyl-5,7-dihydro-6H-pyrrolo[2,3-d] pyrimidin-6-one]
98	10	–	CC1(c2ccc(F)cc2)C(=O)Nc2nc(-c3cn4ccnc4c(Oc4ccc(F)c(F)c4)n3)nc(N)c21 (stereo not drawn) [Example 18A, 4-amino-2-[8-(3,4-difluorophenoxy)imidazo[1,2-a]pyrazin-6-yl]-5-(4-fluorophenyl)-5-methyl-5,7-dihydro-6H-pyrrolo[2,3-d] pyrimidin-6-one]
93	10	–	CC(C)CSc1nc(-c2nc(N)c3c(n2)NC(=O)C3(C)c2ccc(F)cc2)cn2ccnc12 (stereo not drawn) [Example 63A, 4-amino-5-(4-fluorophenyl)-5-methyl-2-{8-[(2-methylpropyl)sulfanyl]imidazo [1,2-a]pyrazin-6-yl}-5,7-dihydro-6H-pyrrolo[2,3-d] pyrimidin-6-one]
123	47	–	CCC1(CNc2nc(-c3nc(N)c4c(n3)NC(=O)C4(C)c3ccc(Cl)cc3)cn3ccnc23)CC1 (stereo not drawn) [Example 57A, 4-amino-5-(4-chlorophenyl)-2-(8-{[(1-ethylcyclo-propyl)methyl]amino}imidazo [1,2-a]pyrazin-6-yl)-5-methyl-5,7-dihydro-6H-pyrrolo[2,3-d] pyrimidin-6-one]
119	1350	–	CC1(c2ccc(F)cc2)C(=O)Nc2nc(-c3cn4ccnc4c(OCCC4CC(F)(F)C4)n3)nc(N)c21 (stereo not drawn) [Example 42A, 4-amino-2-{8-[2-(3,3-difluoro-cyclobutyl)ethoxy]imidazo[1,2-a]pyrazin-6-yl}-5-(4-fluorophenyl)-5-methyl-5,7-dihydro-6H-pyrrolo[2,3-d] pyrimidin-6-one]
96	1080	–	CC1(c2ccc(Cl)cc2)C(=O)Nc2nc(-c3cn4ccnc4c(NCC4CCCOC4)n3)nc(N)c21 (single isomer, unassigned; fast eluting) [Example 72A, 4-amino-5-(4-chlorophenyl)-5-methyl-2-{8-[(tetrahydro-2H-pyran-3-ylmethyl)amino]imidazo [1,2-a]pyrazin-6-yl}-5,7-dihydro-6H-pyrrolo[2,3-d] pyrimidin-6-one (fast eluting)]
105	718	–	CC1(C)C(=O)Nc2nc(-c3cn4ccnc4c(Oc4cc(F)ccc4F)n3)nc(N)c21 [Example 26, 4-amino-2-[8-(2,5-difluorophenoxy)imidazo[1,2-a]pyrazin-6-yl]-5,5-dimethyl-5,7-dihydro-6H-pyrrolo[2,3-d] pyrimidin-6-one]
100	16	–	CC1(c2ccc(F)cc2)C(=O)Nc2nc(-c3cn4ccnc4c(Oc4cc(F)cc(F)c4)n3)nc(N)c21 (stereo not drawn) [Example 23A, 4-amino-2-[8-(3,5-difluorophenoxy)imidazo[1,2-a]pyrazin-6-yl]-5-(4-fluorophenyl)-5-methyl-5,7-dihydro-6H-pyrrolo[2,3-d] pyrimidin-6-one]
101	244	–	COCCNc1nc(-c2nc(N)c3c(n2)NC(=O)C3(C)c2ccc(F)cc2)cn2ccnc12 (stereo not drawn) [Example 52A, 4-amino-5-(4-fluorophenyl)-2-{8-[(2-methoxyethyl)amino]imidazo [1,2-a]pyrazin-6-yl}-5-methyl-5,7-dihydro-6H-pyrrolo[2,3-d] pyrimidin-6-one]
81	336	–	CC(Nc1nc(-c2nc(N)c3c(n2)NC(=O)C3(C)c2ccc(Cl)cc2)cn2ccnc12)c1ccccc1 (stereo not drawn) [Example 73, 4-amino-5-(4-chlorophenyl)-5-methyl-2-{8-[(1-phenylethyl)amino]imidazo [1,2-a]pyrazin-6-yl}-5,7-dihydro-6H-pyrrolo[2,3-d] pyrimidin-6-one]
104	138	–	CC1(c2ccccc2)C(=O)Nc2nc(-c3cn4ccnc4c(Oc4ccc(F)c(F)c4F)n3)nc(N)c21 (stereo not drawn) [Example 11B, 4-amino-5-methyl-5-phenyl-2-[8-(2,3,4-trifluoro-phenoxy)imidazo [1,2-a]pyrazin-6-yl]-5,7-dihydro-6H-pyrrolo[2,3-d] pyrimidin-6-one]
94	644	–	CC1(c2ccc(F)cc2)C(=O)Nc2nc(-c3cn4ccnc4c(OCCC4CC4(F)F)n3)nc(N)c21 (stereo not drawn) [Example 41A, 4-amino-2-{8-[2-(2,2-difluoro-cyclopropyl)ethoxy]imidazo[1,2-a]pyrazin-6-yl}-5-(4-fluorophenyl)-5-methyl-5,7-dihydro-6H-pyrrolo[2,3-d] pyrimidin-6-one]
110	51	–	CC1(c2ccc(Cl)cc2)C(=O)Nc2nc(-c3cn4ccnc4c(NCC4CC4(C)C)n3)nc(N)c21 (stereo not drawn) [Example 56A, 4-amino-5-(4-chlorophenyl)-2-(8-{[(2,2-dimethylcyclo-propyl)methyl]amino}imidazo [1,2-a]pyrazin-6-yl)-5-methyl-5,7-dihydro-6H-pyrrolo [2,3-d]pyrimidin-6-one]
–	412	94	CC1(c2ccc(Cl)cc2)C(=O)Nc2nc(-c3cn4ccnc4c(NCC4CCCOC4)n3)nc(N)c21 (single isomer, unassigned; slow eluting) [Example 72B, 4-amino-5-(4-chlorophenyl)-5-methyl-2-{8-[(tetrahydro-2H-pyran-3-ylmethyl)amino]imidazo [1,2-a]pyrazin-6-yl}-5,7-dihydro-6H-pyrrolo[2,3-d] pyrimidin-6-one (slow eluting)]
